Experimental data as given in ChEMBL document CHEMBL1201862, “PubChem BioAssay data set” (2004).
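Five compound concentrations were applied to cells in 96-well plates for 48 hours; endpoints were derived by simple linear interpolation of the resulting dose-response curve. Abbreviation: GI50, concentration required for 50% inhibition of growth.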 Activity calls are given as the source filed them. Cut-off read from the data, not from the text of the source: active = GI50 up to about 1.1 µM and inactive = higher.

How the values were obtained:
Assay in all cases: NCI tumour cell line growth inhibition, 48 h
DMS-114 = test system: DMS-114
HOP-18 = test system: HOP-18
KM-20L2 = test system: KM-20L2
LXFL 529 = test system: LXFL 529
M19-MEL = test system: M19-MEL
SNB-78 = test system: SNB-78
DMS-273 = test system: DMS-273
XF498 = test system: XF498
RXF 631 = test system: RXF 631

| SMILES | GI50 (DMS-114) | GI50 (HOP-18) | GI50 (KM-20L2) | GI50 (LXFL 529) | GI50 (M19-MEL) | GI50 (SNB-78) | GI50 (DMS-273) | GI50 (XF498) | GI50 (RXF 631) |
| --- | --- | --- | --- | --- | --- | --- | --- | --- | --- |
| O=C1C(=C2CCCC2)CCC1CN1CCCCC1 (stereo not given) | 17.5 µM (inactive) | 15.3 µM (inactive) | 17.5 µM (inactive) | 13.2 µM (inactive) | 32.4 µM (inactive) | 19.6 µM (inactive) |  |  |  |
| COc1ccc(C(=O)C(C(=O)C(=O)NC2C3CC4CC(C3)CC2C4)c2ccc(OC)cc2)cc1 (stereo not given) | > 100 µM (inactive) | > 100 µM (inactive) | > 100 µM (inactive) | > 100 µM (inactive) | > 100 µM (inactive) | > 100 µM (inactive) | > 100 µM (inactive) |  |  |
| CC1=C(C(=O)NCc2ccccc2)C(c2ccco2)C(C(=O)NCc2ccccc2)=C(C)N1 | 48.5 µM (inactive) | > 100 µM (inactive) | 32.5 µM (inactive) | 42.6 µM (inactive) |  | > 100 µM (inactive) | 66.8 µM (inactive) | > 100 µM (inactive) |  |
| CN1C2CCC1/C(=C/c1cccc3c1OCO3)C(=O)/C2=C\c1cccc2c1OCO2 | > 100 µM (inactive) |  | > 100 µM (inactive) | > 100 µM (inactive) | > 100 µM (inactive) |  | 45 µM (inactive) | 25.3 µM (inactive) |  |
| O=C(CCc1ccccc1)CC1OC(=O)C(Cl)=C1Cl (stereo not given) |  | 23.3 µM (inactive) | 13.2 µM (inactive) | 15.8 µM (inactive) | 17.7 µM (inactive) | 46.5 µM (inactive) | 22.3 µM (inactive) | 25.7 µM (inactive) |  |
| O=C(CC1Sc2ccccc2NC1=O)Nc1ccc(Cl)cc1 (stereo not given) | 48.4 µM (inactive) | 20 µM (inactive) | 89.1 µM (inactive) | > 100 µM (inactive) | > 100 µM (inactive) | > 100 µM (inactive) | 83.4 µM (inactive) | > 100 µM (inactive) | 83.6 µM (inactive) |
| CCOC(=O)C1S/C(=N\c2ccc(Cl)cc2Cl)N=C1C (stereo not given) | 33.1 µM (inactive) | > 100 µM (inactive) | > 100 µM (inactive) | 75.2 µM (inactive) | 86.5 µM (inactive) | 60.7 µM (inactive) | 61.1 µM (inactive) | 39.5 µM (inactive) |  |
| O=C1c2ccccc2C(O)(C(=O)O)C1(O)CC=C(Cl)Cl (stereo not given) | > 125 µM (inactive) | > 125 µM (inactive) | > 125 µM (inactive) |  | > 125 µM (inactive) | > 125 µM (inactive) | > 125 µM (inactive) | > 125 µM (inactive) |  |
| C=CC1(C)CCC2=C(CCC3C(C)(C(=O)OC)CCCC23C)C1=O (stereo not given) | 15.3 µM (inactive) |  | 21.3 µM (inactive) | 18.5 µM (inactive) | 18.7 µM (inactive) | 18.8 µM (inactive) |  |  | 16.2 µM (inactive) |
| Cc1cc(N(CCC#N)CCC#N)ccc1/C=C(\NC(=O)/C=C/c1ccccc1)C(=O)Nc1ccccc1Cl | > 100 µM (inactive) |  | > 100 µM (inactive) | > 100 µM (inactive) | > 100 µM (inactive) | > 100 µM (inactive) | > 100 µM (inactive) |  |  |
| Cc1c2ccncc2c(C)c2c1[nH]c1ccccc12 [ELLIPTECINE] | 0.94 µM (active) | 1.49 µM (inactive) | 0.548 µM (active) |  | 0.857 µM (active) | 1.48 µM (inactive) | 0.378 µM (active) | 1.81 µM (inactive) |  |
| COC(=O)C1=C(C)N2CCOC2CC1c1ccccc1 (stereo not given) | > 100 µM (inactive) |  | > 100 µM (inactive) | > 100 µM (inactive) | > 100 µM (inactive) |  |  |  |  |
| Clc1ccccc1C(n1ncc2ccccc21)n1ncc2ccccc21 | 31.3 µM (inactive) |  |  | 37 µM (inactive) | 23.1 µM (inactive) | 71.1 µM (inactive) | 45.2 µM (inactive) | 14.5 µM (inactive) |  |
| O=C(NCCCl)O/N=C/c1cccnc1 | > 100 µM (inactive) | > 100 µM (inactive) |  |  | > 100 µM (inactive) |  | > 100 µM (inactive) | > 100 µM (inactive) |  |
| CC1CC(C)(O)C2C3(C)CCCC2(COC3=O)C12CCC1(CCOC1=O)O2 (stereo not given) | > 250 µM (inactive) | > 250 µM (inactive) | > 250 µM (inactive) |  | > 250 µM (inactive) | > 250 µM (inactive) | > 250 µM (inactive) | 38.3 µM (inactive) |  |
| C/C=C(\C)C(=O)OC1C2C(C)=CC(=O)C(O)C2(C)C2C3(O)OCC24C1OC(=O)C(OC(C)=O)C4C(C)C3O (stereo not given) | 0.0375 µM (active) | 0.0811 µM (active) | 0.0471 µM (active) |  | 0.0375 µM (active) | 0.0483 µM (active) | 0.0375 µM (active) | 0.0396 µM (active) |  |
| N#CC1C(=O)C(=O)N(c2ccccc2)C1=O (stereo not given) | > 100 µM (inactive) | > 100 µM (inactive) | > 100 µM (inactive) | > 100 µM (inactive) | > 100 µM (inactive) | > 100 µM (inactive) | > 100 µM (inactive) | > 100 µM (inactive) | > 100 µM (inactive) |
| OCC1OC(n2cnc3c2NC=NC[C@H]3O)C(O)C1O (stereo not given in full) | > 450 µM (inactive) | 71.3 µM (inactive) | 444 µM (inactive) |  | > 450 µM (inactive) | > 450 µM (inactive) | 303 µM (inactive) | > 274 µM (inactive) |  |
| CC(C)c1oc(=O)cc2c1C(O)C1OC(=O)C3(C)C(O)C4OC4C2(C)C13 (stereo not given) [NAGILACTONE] | 1.13 µM (inactive) | 3.48 µM (inactive) | 1.63 µM (inactive) |  | 1.26 µM (inactive) | 6.25 µM (inactive) | 0.966 µM (active) | 0.703 µM (active) |  |
| CC(=O)Nc1ccc(C(=O)NN2C(=O)C(Cl)C2c2cccc([N+](=O)[O-])c2)cc1 (stereo not given) |  |  |  | > 100 µM (inactive) | > 100 µM (inactive) |  |  |  |  |
| NC1C(O)C(O)C(CO)OC1n1cc(F)c(=O)[nH]c1=O (stereo not given) | > 100 µM (inactive) | > 100 µM (inactive) |  | > 100 µM (inactive) |  | > 100 µM (inactive) | > 100 µM (inactive) |  |  |
| O=C(O)C(Cc1cccs1)NC(=O)C(F)(F)F (stereo not given) | > 100 µM (inactive) | > 100 µM (inactive) | > 100 µM (inactive) |  | > 100 µM (inactive) |  | > 100 µM (inactive) |  |  |
| CCOC(=O)CSC(=O)NCCCl | > 100 µM (inactive) |  | > 100 µM (inactive) | > 100 µM (inactive) |  | > 100 µM (inactive) | > 100 µM (inactive) |  |  |
| COC(=O)c1sc(=O)n(-c2ccccc2)c1SCc1ccccc1 |  | > 100 µM (inactive) | > 100 µM (inactive) | > 100 µM (inactive) | > 100 µM (inactive) |  | > 100 µM (inactive) | > 100 µM (inactive) | > 100 µM (inactive) |
| Clc1cc2nsnc2c(Cl)n1 | 15.6 µM (inactive) | 17.5 µM (inactive) | 37.6 µM (inactive) | 14.4 µM (inactive) | 24.7 µM (inactive) | 56.4 µM (inactive) | 36.3 µM (inactive) | 17.3 µM (inactive) |  |
